According to patent publication US8030500B2, “Substituted isoindoles for the treatment and/or prevention of Aβ- related pathologies” (AstraZeneca AB, priority 2008, dated 2011):
Where a name gives a salt, the structure may show the parent alone. Read-outs that look alike come from different tables or passages of the source.

Molecular target: T1, human β-Secretase (Homo sapiens, UniProt P56817)
T1 construct: soluble part of the human β-Secretase (AA 1-AA 460); Fc domain of IgG1; made in house
Assay: TR-FRET assay (β-secretase enzyme, sBACE-Fc)
Type: biochemical
Method: The β-secretase enzyme used in the TR-FRET is prepared as follows:
The cDNA for the soluble part of the human β-Secretase (AA 1-AA 460) was cloned using the ASP2-Fc10-1-IRES-GFP-neoK mammalian expression vector. The gene was fused to the Fc domain of IgG1 (affinity tag) and stably cloned into HEK 293 cells.
The robotic systems Biomek FX and Velocity 11 were used for all liquid handling and the enzyme and substrate solutions were kept on ice until they were placed in the robotic system. Enzyme (9 μl) was added to the plate then 1 μl of compound in dimethylsulphoxide was added, mixed and pre-incubated for 10 minutes. Substrate (10 μl) was then added, mixed and the reaction proceeded for 15 minutes at room temperature. The reaction was stopped with the addition of Stop solution (7 μl, NaAcetate, pH 9). […] The dimethylsulphoxide control, instead of test compound, defined the 100% activity level and 0% activity was defined by wells lacking enzyme (replaced with reaction buffer).

[1] = soluble human β-secretase (sBACE-Fc), substrate (Europium)[…](Qsy7) 100 nM, pH4.5, read-out: IC50 in TR-FRET assay

T1 sequence (P56817 22-460): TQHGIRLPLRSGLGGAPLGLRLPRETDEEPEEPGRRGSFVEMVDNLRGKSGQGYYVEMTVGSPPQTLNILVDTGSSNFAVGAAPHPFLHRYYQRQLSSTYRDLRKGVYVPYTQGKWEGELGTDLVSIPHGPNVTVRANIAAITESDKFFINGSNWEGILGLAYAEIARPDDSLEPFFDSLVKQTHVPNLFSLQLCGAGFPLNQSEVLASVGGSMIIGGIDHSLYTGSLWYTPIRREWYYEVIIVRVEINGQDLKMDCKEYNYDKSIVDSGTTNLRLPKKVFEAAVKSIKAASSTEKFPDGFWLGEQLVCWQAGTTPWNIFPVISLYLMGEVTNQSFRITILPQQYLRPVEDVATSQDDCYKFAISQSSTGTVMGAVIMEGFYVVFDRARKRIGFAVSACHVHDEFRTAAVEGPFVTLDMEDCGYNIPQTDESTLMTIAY

Structure (SMILES) | IC50 [1] [nM] | IC50 (stated in the text of the example, read-out: IC50 in the FRET assay) [nM]
Cc1cc(C2(c3cc(-c4cncnc4)ccc3F)N=C(N)c3c(F)cccc32)ccn1 (stereo not drawn) [Example 1, 4-Fluoro-1-(2-fluoro-5-(pyrimidin-5-yl)phenyl)-1-(2-methylpyridin-4-yl)-1H-isoindol-3-amine] | 1600 | 
Cc1cc(C2(c3cc(-c4cncc(S(C)(=O)=O)c4)ccc3F)N=C(N)c3c(F)cccc32)ccn1 (stereo not drawn) [Example 2, 4-Fluoro-1-(2-fluoro-5-(5-(methylsulfonyl)pyridin-3-yl)phenyl)-1-(2-methylpyridin-4-yl)-1H-isoindol-3-amine] |  | 27000
Cc1cc(C2(c3cc(-c4cncc(C#N)c4)ccc3F)N=C(N)c3c(F)cccc32)ccn1 (stereo not drawn) [Example 3, 5-(3-(3-Amino-4-fluoro-1-(2-methylpyridin-4-yl)-1H-isoindol-1-yl)-4-fluorophenyl)nicotinonitrile] | 1800 | 
Cc1cc(C2(c3cc(-c4cncc(F)c4)ccc3F)N=C(N)c3c(F)cccc32)ccn1 (stereo not drawn) [Example 4, 4-Fluoro-1-(2-fluoro-5-(5-fluoropyridin-3-yl)phenyl)-1-(2-methylpyridin-4-yl)-1H-isoindol-3-amine] | 1600 | 
Cc1cc(C2(c3cc(-c4cccnc4)ccc3F)N=C(N)c3c(F)cccc32)ccn1 (stereo not drawn) [Example 5, 4-Fluoro-1-(2-fluoro-5-(pyridin-3-yl)phenyl)-1-(2-methylpyridin-4-yl)-1H-isoindol-3-amine] | 1700 | 
NC1=NC(c2ccnc(C(F)(F)F)c2)(c2cc(-c3cncnc3)ccc2F)c2cccc(F)c21 (stereo not drawn) [Example 6, 4-Fluoro-1-(2-fluoro-5-(pyrimidin-5-yl)phenyl)-1-(2-(trifluoromethyl)pyridin-4-yl)-1H-isoindol-3-amine] | 1100 | 
N#Cc1cncc(-c2ccc(F)c(C3(c4ccnc(C(F)(F)F)c4)N=C(N)c4c(F)cccc43)c2)c1 (stereo not drawn) [Example 7, 5-(3-(3-Amino-4-fluoro-1-(2-(trifluoromethyl)pyridin-4-yl)-1H-isoindol-1-yl)-4-fluorophenyl)nicotinonitrile] | 2000 | 
CS(=O)(=O)c1cncc(-c2ccc(F)c(C3(c4ccnc(C(F)(F)F)c4)N=C(N)c4c(F)cccc43)c2)c1 (stereo not drawn) [Example 8, 4-Fluoro-1-(2-fluoro-5-(5-(methylsulfonyl)pyridin-3-yl)phenyl)-1-(2-(trifluoromethyl)pyridin-4-yl)-1H-isoindol-3-amine] | 12000 | 
NC1=NC(c2ccncc2)(c2cccc(-c3cccc(Cl)c3)c2)c2cccc(F)c21 (stereo not drawn) [Example 9, 1-(3′-Chlorobiphenyl-3-yl)-4-fluoro-1-(pyridin-4-yl)-1H-isoindol-3-amine] | 75 | 
NC1=NC(c2ccncc2)(c2cccc(-c3cncnc3)c2)c2cccc(F)c21 (stereo not drawn) [Example 10, 4-Fluoro-1-(pyridin-4-yl)-1-(3-(pyrimidin-5-yl)phenyl)-1H-isoindol-3-amine] | 160 | 
COc1cccc(-c2cccc(C3(c4ccncc4)N=C(N)c4c(F)cccc43)c2)c1F (stereo not drawn) [Example 14, 4-Fluoro-1-(2′-fluoro-3′-methoxybiphenyl-3-yl)-1-(pyridin-4-yl)-1H-isoindol-3-amine] | 95 | 
NC1=NC(c2ccncc2)(c2cccc(-c3cncc(F)c3)c2)c2cccc(F)c21 (stereo not drawn) [Example 15, 4-Fluoro-1-(3-(5-fluoropyridin-3-yl)phenyl)-1-(pyridin-4-yl)-1H-isoindol-3-amine] | 140 | 
NC1=NC(c2ccncc2)(c2ccc(F)c(-c3cncnc3)c2)c2cccc(F)c21 (stereo not drawn) [Example 16, 4-Fluoro-1-(4-fluoro-3-(pyrimidin-5-yl)phenyl)-1-(pyridin-4-yl)-1H-isoindol-3-amine] | 320 | 
COc1ccc(C2(c3cccc(-c4cncnc4)c3)N=C(N)c3c(F)cccc32)cc1 (stereo not drawn) [Example 17, 4-Fluoro-1-(4-methoxyphenyl)-1-(3-(pyrimidin-5-yl)phenyl)-1H-isoindol-3-amine] | 110 | 
COc1cccc(-c2cc(C3(c4cncnc4)N=C(N)c4c(F)cccc43)ccc2F)c1F (stereo not drawn) [Example 18, 1-(2′,6-Difluoro-3′-methoxybiphenyl-3-yl)-4-fluoro-1-(pyrimidin-5-yl)-1H-isoindol-3-amine] | 3400 | 
COc1ccnc(-c2cc(C3(c4cncnc4)N=C(N)c4c(F)cccc43)ccc2F)c1 (stereo not drawn) [Example 19, 4-Fluoro-1-(4-fluoro-3-(4-methoxypyridin-2-yl)phenyl)-1-(pyrimidin-5-yl)-1H-isoindol-3-amine] | 4100 | 
NC1=NC(c2cccc(-c3cncnc3)c2)(c2ccnc(C(F)(F)F)c2)c2cccc(F)c21 (stereo not drawn) [Example 20, 4-Fluoro-1-(3-(pyrimidin-5-yl)phenyl)-1-(2-(trifluoromethyl)pyridin-4-yl)-1H-isoindol-3-amine] | 240 | 
Cc1cc(C2(c3cccc(-c4cncnc4)c3)N=C(N)c3c(F)cccc32)cc(C)n1 (stereo not drawn) [Example 21, 1-(2,6-Dimethylpyridin-4-yl)-4-fluoro-1-(3-(pyrimidin-5-yl)phenyl)-1H-isoindol-3-amine] | 1100 | 
Cc1cc(C2(c3cccc(-c4cncc(C#N)c4)c3)N=C(N)c3c(F)cccc32)cc(C)n1 (stereo not drawn) [Example 22, 5-(3-(3-Amino-1-(2,6-dimethylpyridin-4-yl)-4-fluoro-1H-isoindol-1 yl)phenyl)nicotinonitrile] | 870 | 
N#Cc1cncc(-c2cccc(C3(c4ccnc(C(F)(F)F)c4)N=C(N)c4c(F)cccc43)c2)c1 (stereo not drawn) [Example 23, 5-(3-(3-Amino-4-fluoro-1-(2-(trifluoromethyl)pyridin-4-yl)-1H-isoindol-1-yl)phenyl)nicotinonitrile] | 250 | 
COc1cc(C2(c3ccc(F)c(-c4cncnc4)c3)N=C(N)c3c(F)cccc32)ccn1 (stereo not drawn) [Example 24, 4-Fluoro-1-(4-fluoro-3-(pyrimidin-5-yl)phenyl)-1-(2-methoxypyridin-4-yl)-1H-isoindol-3-amine] | 280 | 
N#Cc1cncc(-c2cc(C3(c4ccnc(C(F)(F)F)c4)N=C(N)c4c(F)cccc43)ccc2F)c1 (stereo not drawn) [Example 25, 5-(5-(3-Amino-4-fluoro-1-(2-(trifluoromethyl)pyridin-4-yl)-1H-isoindol-1-yl)-2-fluorophenyl) nicotinonitrile trifluoroacetate] | 370 | 
N#Cc1cncc(-c2cc(C3(c4ccncc4)N=C(N)c4c(F)cccc43)ccc2F)c1 (stereo not drawn) [Example 26, 5-(5-(3-Amino-4-fluoro-1-(pyridin-4-yl)-1H-isoindol-1-yl)-2-fluorophenyl) nicotinonitrile] | 460 | 
COc1cc(C2(c3cccc(-c4cncnc4)c3)N=C(N)c3c(F)cccc32)ccn1 (stereo not drawn) [Example 27, 4-Fluoro-1-(2-methoxypyridin-4-yl)-1-(3-(pyrimidin-5-yl)phenyl)-1H-isoindol-3-amine] | 400 | 
COc1cc(C2(c3cccc(-c4cncc(C#N)c4)c3)N=C(N)c3c(F)cccc32)ccn1 (stereo not drawn) [Example 28, 5-(3-(3-Amino-4-fluoro-1-(2-methoxypyridin-4-yl)-1H-isoindol-1-yl)phenyl)nicotinonitrile acetate] | 470 | 
COc1cc(C2(c3cccc(-c4cnccn4)c3)N=C(N)c3c(F)cccc32)ccn1 (stereo not drawn) [Example 29, 4-Fluoro-1-(2-methoxypyridin-4-yl)-1-(3-(pyrazin-2-yl)phenyl)-1H-isoindol-3-amine acetate] | 200 | 
NC1=NC(c2cccc(-c3cnccn3)c2)(c2ccnc(C(F)(F)F)c2)c2cccc(F)c21 (stereo not drawn) [Example 30, 4-Fluoro-1-(3-(pyrazin-2-yl)phenyl)-1-(2-(trifluoromethyl)pyridin-4-yl)-1H-isoindol-3-amine] | 320 | 
